Measured values taken from patent publication US11667630B2, “Nitrogen-containing 6-membered cyclic compound” (Asahi Kasei Pharma Corporation, priority 2017, dated 2023).

What was measured:
human EP4 receptor [1] = target: T1, human EP4 receptor (Homo sapiens, UniProt P35408); experiment: Measurement of EP4 agonist activity (cAMP production); assay type: cell-based; parameters: expressed in transfected cells; host or cells: HEK293; details: cAMP production in HEK293 cells stably expressing human EP4 receptor; average values where measured two or more times
Protocol: In order to investigate EP4 receptor agonist activity of the compounds of the present invention, production of cAMP was measured in HEK293 cells that were made to stably express the human EP4 receptor.
By using Refseq Database, prostaglandin E receptor was searched for. As a result, gene information of human EP4 (NM_000958) receptor was obtained. On the basis of this sequence information, the human EP4 receptor gene was cloned by PCR in a conventional manner using human cDNA as the template, and HEK293 cells that were made to stably express the human EP4 receptor were established. When cryopreserved cells of this strain were thawed and used, cells subcultured three times or more within a certain period of time (about 1 to 2 weeks) by using Dulbecco's Modified Eagle's Medium (Dulbecco's Modified Eagle's Medium may be henceforth abbreviated as DMEM) containing 10% FBS, 50 units each of penicillin and streptomycin were used. The subcultured cells were inoculated in wells of a poly-D-lysine-coated 96-well plate at a density of 2×10^4 to 2.5×10^4 cells/well, and cultured for one day. The medium in the wells was removed by suction, then DMEM (80 μL) was added to each well, and incubation was performed at 37° C. for 15 minutes. […] The reaction was allowed at 37° C. for 30 minutes, then the medium was removed by suction, Assay/Lysis Buffer (100 μL) contained in cAMP Screen Kit (produced by Applied Biosystems) was added to terminate the reaction. Then, the reaction mixture was incubated at 37° C. for 30 minutes to prepare a sample for quantification of cAMP, and the amount of cAMP in the sample was quantified according to the method indicated in cAMP Screen Kit. By non-linear regression of the compound concentration and the amount of cAMP, the concentration of the compound required for increasing cAMP to 50% of the maximum increase (EC50 value) was calculated by using the Kaleida Graph.

rat femur = experiment: Neo-osteogenesis action in rat femur; assay type: in vivo; details: female SD rats, one week after administration; for Bone mineral content of femur 1/3 center region (mg) Left femur (administered with compound): 100 μg test compound in in situ-solidified gel solution injected between quadriceps and periosteum; for Bone mineral content of femur 1/3 center region (mg) Right femur (no administration of compound): contralateral femur, 100 μg test compound given at left femur
Protocol: Eight weeks old female SD rats (Charles River Japan) were fixed in the side lying position under triple anesthesia (medetomidine hydrochloride, midazolam, and butorphanol tartrate). After hair of the left femoral region was shaved with a hair clipper, and disinfection treatment was performed with 70% ethanol, an in situ-solidified gel solution of a test compound, specifically, a test compound dissolved in poly(lactic-co-glycolic acid) (RESOMER RG502H, produced by Evonik Industries)/poly(lactic-co-glycolic acid)-polyethylene glycol block copolymer (5050 DLG mPEG 5000, produced by Lakeshore Biomaterials)/N-methyl-2-pyrroridone (produced by Wako) (weight ratio 47%/3%/50%), was filled in a 1-mL syringe, a 21G injection needle was attached to the syringe, and the needle was transdermally stabbed from the quadriceps to the periosteum near the center of the femoral diaphyseal. Then, 100 μg as the amount of the test compound, or 50 μL as the administration volume of the solution was injected between the quadriceps and the periosteum, and the injection needle was drawn out. To the rats of the control group, the aforementioned in situ-solidified gel solution alone was administered. One week after the administration of the drug solution, the triple anesthesia was given to the animals, and they were fixed in the supine position, and euthanized by bleeding. […], circumferential tissues such as muscles were removed, the bone mineral content of the whole femur was measured by using a bone mineral analyzer DCS-600EX (produced by ALOKA), then it was divided into three portions along the long axis, and the bone mineral content of the center part (diaphysis) was evaluated. The test was performed with the groups each consisting of 6 animals.

human EP4 receptor [2] = target: T1, human EP4 receptor; experiment: Receptor binding test, [3H]PGE2 binding inhibition, EP4; parameters: purchased Merck Millipore HTS142M; details: [3H]PGE2 1.24 nmol/L, membrane fraction HTS142M, 25°C 60 minutes
Protocol: (§1) In order to evaluate selectivity to each EP receptor subtype, [^3H]PGE2 binding-inhibition activities of test compounds for cell membranes on which human EP2, human EP3, and human EP4 receptors were stably expressed were measured.
(§2) As the membrane fractions of the prostaglandin E receptors EP2, EP3, and EP4, 10.0 μg protein/tube each of HTS185M, HTS092M, and HTS142M of Merck Millipore were used, respectively. Each membrane fraction was incubated with a reaction mixture (250 μL/tube) containing a test compound and [3H]PGE2 at 25° C. for 60 minutes. […] After the reaction, the membrane fraction was collected on filter paper by using a cell harvester, the filter paper was transferred to a measurement vial, and the measurement was performed on a liquid scintillation counter.
(§3) The nonspecific binding was determined as binding observed in the presence of excess amount (10 μM) of unlabeled PGE2. The measurement of the [3H]PGE2 binding-inhibiting activity of a test compound was performed by adding the test compound at various concentrations. The following buffers were used for the reaction.
Buffer for EP4: 50 mmol/L HEPES-NaOH (pH7.4) containing 5 mmol/L MgCl2, 1 mmol/L CaCl2), and 0.2% BSA

human EP3 receptor = target: T2, human EP3 receptor (Homo sapiens, UniProt P43115); experiment: Receptor binding test, [3H]PGE2 binding inhibition, EP3; details: [3H]PGE2 1.54 nmol/L, membrane fraction HTS092M, 25°C 60 minutes
T2 construct: purchased Merck Millipore HTS092M
T2 sequence (P43115 1-390): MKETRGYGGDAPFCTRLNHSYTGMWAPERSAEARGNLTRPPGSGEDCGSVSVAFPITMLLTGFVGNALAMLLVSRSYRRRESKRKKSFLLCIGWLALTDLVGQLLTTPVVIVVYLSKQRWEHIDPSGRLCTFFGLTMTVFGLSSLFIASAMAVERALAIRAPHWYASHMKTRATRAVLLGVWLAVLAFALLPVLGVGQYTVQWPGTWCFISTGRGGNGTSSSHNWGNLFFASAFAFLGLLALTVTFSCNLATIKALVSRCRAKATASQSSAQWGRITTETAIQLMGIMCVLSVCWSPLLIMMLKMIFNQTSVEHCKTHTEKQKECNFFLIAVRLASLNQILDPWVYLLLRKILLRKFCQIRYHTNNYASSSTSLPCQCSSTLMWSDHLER
Protocol: as §1, §2, §3
Buffer for EP3: 50 mmol/L Tris-HCl buffer containing 10 mmol/L MgCl2, and 1 mmol/L EDTA

human EP2 receptor = target: T3, human EP2 receptor (Homo sapiens, UniProt P43116); experiment: Receptor binding test, [3H]PGE2 binding inhibition, EP2; details: [3H]PGE2 2.56 nmol/L, membrane fraction HTS185M, 25°C 60 minutes
T3 construct: purchased Merck Millipore HTS185M
Protocol: as §1, §2, §3
Buffer for EP2: 50 mmol/L HEPES-NaOH (pH 7.4) containing 5 mmol/L MgCl2, 1 mmol/L CaCl2), and 0.2% BSA

T1 sequence (P35408 whole entry): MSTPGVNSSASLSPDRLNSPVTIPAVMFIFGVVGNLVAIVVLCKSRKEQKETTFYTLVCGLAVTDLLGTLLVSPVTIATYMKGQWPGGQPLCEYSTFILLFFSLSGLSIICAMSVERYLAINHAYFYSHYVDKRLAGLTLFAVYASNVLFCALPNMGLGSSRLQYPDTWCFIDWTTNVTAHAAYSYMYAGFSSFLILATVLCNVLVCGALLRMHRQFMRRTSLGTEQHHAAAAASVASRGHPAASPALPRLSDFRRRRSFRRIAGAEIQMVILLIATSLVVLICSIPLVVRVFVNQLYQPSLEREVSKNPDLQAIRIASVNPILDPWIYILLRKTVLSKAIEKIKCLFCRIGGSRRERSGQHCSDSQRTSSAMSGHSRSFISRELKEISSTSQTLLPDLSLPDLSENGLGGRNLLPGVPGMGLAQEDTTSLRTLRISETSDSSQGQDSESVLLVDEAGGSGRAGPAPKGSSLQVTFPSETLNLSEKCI
T3 sequence (P43116 whole entry): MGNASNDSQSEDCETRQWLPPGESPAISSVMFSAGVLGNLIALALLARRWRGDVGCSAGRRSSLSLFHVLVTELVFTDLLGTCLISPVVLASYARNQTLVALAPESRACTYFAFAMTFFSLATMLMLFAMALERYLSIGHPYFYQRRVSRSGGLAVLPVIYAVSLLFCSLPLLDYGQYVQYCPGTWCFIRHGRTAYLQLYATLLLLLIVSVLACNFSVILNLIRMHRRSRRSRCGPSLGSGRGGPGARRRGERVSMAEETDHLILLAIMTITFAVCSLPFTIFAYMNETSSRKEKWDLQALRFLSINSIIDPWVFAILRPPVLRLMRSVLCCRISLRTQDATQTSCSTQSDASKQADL

Compound | EC50 (human EP4 receptor [1]) | Bone mineral content of femur 1/3 center region (mg) Left femur (administered with compound) (rat femur) | Bone mineral content of femur 1/3 center region (mg) Right femur (no administration of compound) (rat femur) | IC50 (human EP4 receptor [2]) | IC50 (human EP3 receptor) | IC50 (human EP2 receptor)
O=C(O)c1ccc(CCN2C(=O)SCCN2CCC(O)Cc2cccc(C#Cc3ccoc3)c2)s1 (stereo not drawn) [Example 10, 5-(2-(4-(4-(3-(Furan-3-ylethynyl)phenyl)-3-hydroxybutyl)-2-oxo-1,3,4-thiadiazinan-3-yl)ethyl)thiophene-2-carboxylic acid] | 0.065 nM | 78.0 ± 1.5 mg | 61.1 ± 0.5 mg | – | – | –
O=C(O)c1ccc(CCN2C(=O)SCCN2CCC(O)Cc2cccc(C#Cc3nccs3)c2)s1 (stereo not drawn) [Example 13, 5-(2-(4-(3-Hydroxy-4-(3-(thiazol-2-ylethynyl)phenyl)butyl)-2-oxo-1,3,4-thiadiazinan-3-yl)ethyl)thiophene-2-carboxylic acid] | 0.34 nM | 82.0 ± 3.4 mg | 65.5 ± 2.7 mg | – | – | –
Cc1cc(C#Cc2ccsc2)cc(CC(O)CCN2CCSC(=O)N2CCc2ccc(C(=O)O)s2)c1 (stereo not drawn) [Example 19, 5-(2-(4-(3-Hydroxy-4-(3-methyl-5-(thiophen-3-ylethynyl)phenyl)butyl)-2-oxo-1,3,4-thiadiazinan-3-yl)ethyl)thiophene-2-carboxylic acid] | 0.1 nM | 85.8 ± 2.3 mg | 59.6 ± 1.4 mg | – | – | –
O=C(O)c1ccc(CCN2C(=O)SCCN2CCC(O)Cc2ccc(F)c(C#Cc3ccsc3)c2)s1 (stereo not drawn) [Example 20, 5-(2-(4-(4-(4-Fluoro-3-(thiophen-3-ylethynyl)phenyl)-3-hydroxybutyl)-2-oxo-1,3,4-thiadiazinan-3-yl)ethyl)thiophene-2-carboxylic acid] | 0.07 nM | 79.4 ± 5.2 mg | 58.7 ± 3.6 mg | – | – | –
O=C(O)c1ccc(CCN2C(=O)SCCN2CCC(O)Cc2cc(C#Cc3ccsc3)cs2)s1 (stereo not drawn) [Example 22, 5-(2-(4-(3-Hydroxy-4-(4-(thiophen-3-ylethynyl)thiophen-2-yl)butyl)-2-oxo-1,3,4-thiadiazinan-3-yl)ethyl)thiophene-2-carboxylic acid] | 0.055 nM | 79.5 ± 1.9 mg | 60.3 ± 2.7 mg | – | – | –
O=C(O)c1ccc(CCN2C(=O)SCCN2CC[C@@H](O)Cc2cccc(C#Cc3cscn3)c2)s1 [Example 25, (S)-5-(2-(4-(3-Hydroxy-4-(3-(thiazol-4-ylethynyl)phenyl)butyl)-2-oxo-1,3,4-thiadiazinan-3-yl)ethyl)thiophene-2-carboxylic acid] | 0.095 nM | 79.1 ± 4.0 mg | 61.0 ± 2.1 mg | 10.9 nM | > 1000 nM | > 1000 nM
O=C(O)c1ccc(CCN2C(=O)SCCN2CC[C@@H](O)Cc2cccc(C#Cc3ccoc3)c2)s1 [Example 26, (S)-5-(2-(4-(4-(3-(Furan-3-ylethynyl)phenyl)-3-hydroxybutyl)-2-oxo-1,3,4-thiadiazinan-3-yl)ethyl)thiophene-2-carboxylic acid] | 0.17 nM | 87.0 ± 1.6 mg | 65.9 ± 1.2 mg | 16.2 nM | > 1000 nM | > 1000 nM
